Experiments:
[1] = test system: Dermatophyten und Schimmelpilze; Hefen; test: Antimycotic in-vitro activity, serial dilution test; format: cell-based; conditions: Reihenverdünnungstest, 5 x 10^4 Keimen/ml Substrat, 20°C, 24 bis 96 Stunden; compared with prior-art compounds (A) and (B)
Method: Die in-vitro-Prüfungen wurden im Reihenverdünnungstest mit Keiminokula von durchschnittlich 5 x 10^4 Keimen/ml Substrat durchgeführt. Als Nährmedium dienten • a) für Dermatophyten und Schimmelpilze: Sabourand's milieu d'épreuve • b) für Hefen: Fleischextrakt-Traubenzucker-Bouillon.
Die Bebrütungstemperatur betrug 20°C, die Bebrütungsdauer lag bei 24 bis 96 Stunden.

[2] = test system: Candida; test: Antimycotic in-vivo activity (oral) in mouse candidosis; conditions: Mäuse SPF-CF1 infected i.v. with 1 - 2 x 10^6 Candida-Zellen, 50 - 100mg/ kg one hour before and seven hours after infection, survival, compared with (A) and (B)
Method: Mäuse vom Typ SPF-CF1 wurden intravenös mit 1 - 2 x 10^6 logarithmisch wachsenden Candida-Zellen, die in physiologischer Kochsalzlösung suspendiert werden, infiziert. Eine Stunde vor und sieben Stunden nach der Infektion werden die Tiere mit jeweils 50 - 100mg/ kg Körpergewicht der Präparate oral behandelt.
Unbehandelte Tiere starben 3 bis 6 Tage post infektionen. Die Ueberlebensrate am 6.Tag post infektionem betrug bei unbehandelten Kontrolltieren etwa 5 %. In diesem Test zeigen z.B. die erfindungsgemäßen Verbindungen 3, 9.

| SMILES | antimykotische Wirkung [1] | Wirkung [2] |
| --- | --- | --- |
| CC(C)(C)C(O)/C(=C\c1ccccc1C(F)(F)F)n1cncn1 (stereo not drawn) [Beispiel 2, 4.4-Dimethyl-2-(1,2,4-triazol-1-yl)-1-(2-trifluormethylphenyl)-1-penten-3-ol] | bessere antimykotische Wirkung als die aus dem Stand der Technik bekannten Verbindungen (A) und (B) |  |
| CC(C)(C)C(O)C(=Cc1ccc(C(F)(F)F)cc1)n1cncn1 (stereo not drawn) [Beispiel 3, 4,4-Dimethyl-2-(1,2,4-triazol-1-yl)-1-(4-trifluormethylphenyl)-1-penten-3-ol] | bessere antimykotische Wirkung als die aus dem Stand der Technik bekannten Verbindungen (A) und (B) | bessere Wirkung als die aus dem Stand der Technik bekannten Verbindungen (A) und (B) |
| CC(C)(C)C(O)/C(=C/c1ccc([N+](=O)[O-])cc1)n1cncn1 (stereo not drawn) [Beispiel 9] |  | bessere Wirkung als die aus dem Stand der Technik bekannten Verbindungen (A) und (B) |
| CC(C)(C)C(O)/C(=C\c1ccc([N+](=O)[O-])cc1)n1cncn1 (stereo not drawn) [Beispiel 10] | bessere antimykotische Wirkung als die aus dem Stand der Technik bekannten Verbindungen (A) und (B) | bessere Wirkung als die aus dem Stand der Technik bekannten Verbindungen (A) und (B) |
| CC(C)(C)C(O)/C(=C\c1ccc(C(F)(F)F)cc1Cl)n1cncn1 (stereo not drawn) [Beispiel 12] | bessere antimykotische Wirkung als die aus dem Stand der Technik bekannten Verbindungen (A) und (B) | bessere Wirkung als die aus dem Stand der Technik bekannten Verbindungen (A) und (B) |
| CC(C)(C)C(O)/C(=C\c1ccc(OC(F)(F)F)cc1)n1cncn1 (stereo not drawn) [Beispiel 14] | bessere antimykotische Wirkung als die aus dem Stand der Technik bekannten Verbindungen (A) und (B) | bessere Wirkung als die aus dem Stand der Technik bekannten Verbindungen (A) und (B) |
| CC(C)(C)C(O)/C(=C\c1ccc(SC(F)(F)F)cc1)n1cncn1 (stereo not drawn) [Beispiel 16] | bessere antimykotische Wirkung als die aus dem Stand der Technik bekannten Verbindungen (A) und (B) |  |
| CC(C)(C)C(O)/C(=C\c1ccc(C(F)(F)F)cc1)n1cncn1 (stereo not drawn) [Beispiel 18] | bessere antimykotische Wirkung als die aus dem Stand der Technik bekannten Verbindungen (A) und (B) | bessere Wirkung als die aus dem Stand der Technik bekannten Verbindungen (A) und (B) |
| CC(C)(C)C(O)/C(=C\c1ccc(C(F)(F)F)c(Cl)c1)n1cncn1 (stereo not drawn) [Beispiel 20] | bessere antimykotische Wirkung als die aus dem Stand der Technik bekannten Verbindungen (A) und (B) |  |
| CC(C)(C)C(O)/C(=C\c1ccc(OC(F)(F)F)c(Cl)c1)n1cncn1 (stereo not drawn) [Beispiel 22] | bessere antimykotische Wirkung als die aus dem Stand der Technik bekannten Verbindungen (A) und (B) |  |

— patent publication EP0053325A1, “Antimicrobic triazole derivatives” (BAYER AG, priority 1980, dated 1982)
